# Experimental data: US20100041089A1, “IMPROVED METHOD FOR DETECTING CHEMICAL […]” (priority 2006, published 2010)
# Test system: yeast genes (expressed mRNA)
# Test: DNA chip measurement of expressed mRNA of yeast genes after culture with a toxic chemical substance
# Assay type: cell-based, Saccharomyces cerevisiae S288C
# Conditions: for level of expressed mRNA in the presence of chemical substance / level in the absence of chemical substance: cultured two hours with the chemical substance; for The level of expressed mRNA in the presence of chemical substance/The level of expressed mRNA in the absence of chemical substance: cultured two hours with substance
# How it was run: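 Fluorescence ratio, treated over untreated, read by chip scanner; ratio of two or more counted significant. Cells: S288C yeast, YPD, 25° C, chemical added at log phase for 2 h at growth-inhibiting, sublethal level. Cy3/Cy5-labeled cDNA from oligo-dT-purified mRNA.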
structure (smiles),measurement,setting,value
"Cl[C@H]1[C@H](Cl)[C@@H](Cl)[C@@H](Cl)[C@H](Cl)[C@H]1Cl [(7), γ-Hexachlorocyclohexane]",level of expressed mRNA in the presence of chemical substance / level in the absence of chemical substance,yeast gene YDR133C,0.2
same,level of expressed mRNA in the presence of chemical substance / level in the absence of chemical substance,yeast gene YDR250C,1.0
same,level of expressed mRNA in the presence of chemical substance / level in the absence of chemical substance,yeast gene YDR278C,0.7
same,level of expressed mRNA in the presence of chemical substance / level in the absence of chemical substance,yeast gene YDR281C,0.6
same,The level of expressed mRNA in the presence of chemical substance/The level of expressed mRNA in the absence of chemical substance,yeast gene YDR330W,1.3
same,level of expressed mRNA in the presence of chemical substance / level in the absence of chemical substance,yeast gene YDR366C,1.5
same,The level of expressed mRNA in the presence of chemical substance/The level of expressed mRNA in the absence of chemical substance,yeast gene YDR411C,2.0
same,The level of expressed mRNA in the presence of chemical substance/The level of expressed mRNA in the absence of chemical substance,yeast gene YDR511W,1.5
same,The level of expressed mRNA in the presence of chemical substance/The level of expressed mRNA in the absence of chemical substance,yeast gene YDR545W,1.2
same,The level of expressed mRNA in the presence of chemical substance/The level of expressed mRNA in the absence of chemical substance,yeast gene YEL001C,1.1
same,The level of expressed mRNA in the presence of chemical substance/The level of expressed mRNA in the absence of chemical substance,yeast gene YER004W,1.4
same,The level of expressed mRNA in the presence of chemical substance/The level of expressed mRNA in the absence of chemical substance,yeast gene YER035W,1.9
same,The level of expressed mRNA in the presence of chemical substance/The level of expressed mRNA in the absence of chemical substance,yeast gene YER079W,1.9
same,The level of expressed mRNA in the presence of chemical substance/The level of expressed mRNA in the absence of chemical substance,yeast gene YER106W,1.0
same,The level of expressed mRNA in the presence of chemical substance/The level of expressed mRNA in the absence of chemical substance,yeast gene YER158C,1.2
same,The level of expressed mRNA in the presence of chemical substance/The level of expressed mRNA in the absence of chemical substance,yeast gene YER163C,1.5
same,The level of expressed mRNA in the presence of chemical substance/The level of expressed mRNA in the absence of chemical substance,yeast gene YER175C,2.3
same,The level of expressed mRNA in the presence of chemical substance/The level of expressed mRNA in the absence of chemical substance,yeast gene YFL006W,1.0
same,The level of expressed mRNA in the presence of chemical substance/The level of expressed mRNA in the absence of chemical substance,yeast gene YFL010C,1.5
same,The level of expressed mRNA in the presence of chemical substance/The level of expressed mRNA in the absence of chemical substance,yeast gene YFL024C,3.3
same,The level of expressed mRNA in the presence of chemical substance/The level of expressed mRNA in the absence of chemical substance,yeast gene YFL032W,1.1
same,level of expressed mRNA in the presence of chemical substance / level in the absence of chemical substance,yeast gene YFR026C,1.3
same,The level of expressed mRNA in the presence of chemical substance/The level of expressed mRNA in the absence of chemical substance,yeast gene YGL037C,2.9
same,The level of expressed mRNA in the presence of chemical substance/The level of expressed mRNA in the absence of chemical substance,yeast gene YGL047W,1.7
same,The level of expressed mRNA in the presence of chemical substance/The level of expressed mRNA in the absence of chemical substance,yeast gene YGL053W,3.7
same,level of expressed mRNA in the presence of chemical substance / level in the absence of chemical substance,yeast gene YGL088W,1.0
same,The level of expressed mRNA in the presence of chemical substance/The level of expressed mRNA in the absence of chemical substance,yeast gene YGL121C,4.7
same,The level of expressed mRNA in the presence of chemical substance/The level of expressed mRNA in the absence of chemical substance,yeast gene YGL199C,1.3
same,level of expressed mRNA in the presence of chemical substance / level in the absence of chemical substance,yeast gene YGR038W,1.1
same,The level of expressed mRNA in the presence of chemical substance/The level of expressed mRNA in the absence of chemical substance,yeast gene YGR101W,1.5
same,The level of expressed mRNA in the presence of chemical substance/The level of expressed mRNA in the absence of chemical substance,yeast gene YGR110W,1.7
same,The level of expressed mRNA in the presence of chemical substance/The level of expressed mRNA in the absence of chemical substance,yeast gene YGR130C,1.3
same,level of expressed mRNA in the presence of chemical substance / level in the absence of chemical substance,yeast gene YGR139W,0.8
same,The level of expressed mRNA in the presence of chemical substance/The level of expressed mRNA in the absence of chemical substance,yeast gene YGR154C,2.0
same,The level of expressed mRNA in the presence of chemical substance/The level of expressed mRNA in the absence of chemical substance,yeast gene YGR221C,1.2
same,level of expressed mRNA in the presence of chemical substance / level in the absence of chemical substance,yeast gene YGR243W,1.9
same,level of expressed mRNA in the presence of chemical substance / level in the absence of chemical substance,yeast gene YGR293C,1.3
same,level of expressed mRNA in the presence of chemical substance / level in the absence of chemical substance,yeast gene YHL006C,1.2
same,level of expressed mRNA in the presence of chemical substance / level in the absence of chemical substance,yeast gene YHR095W,0.8
same,level of expressed mRNA in the presence of chemical substance / level in the absence of chemical substance,yeast gene YHR105W,0.9
same,The level of expressed mRNA in the presence of chemical substance/The level of expressed mRNA in the absence of chemical substance,yeast gene YHR138C,3.0
same,level of expressed mRNA in the presence of chemical substance / level in the absence of chemical substance,yeast gene YHR181W,0.8
same,The level of expressed mRNA in the presence of chemical substance/The level of expressed mRNA in the absence of chemical substance,yeast gene YHR199C,1.1
same,The level of expressed mRNA in the presence of chemical substance/The level of expressed mRNA in the absence of chemical substance,yeast gene YIL023C,1.2
same,The level of expressed mRNA in the presence of chemical substance/The level of expressed mRNA in the absence of chemical substance,yeast gene YIL041W,0.8
same,The level of expressed mRNA in the presence of chemical substance/The level of expressed mRNA in the absence of chemical substance,yeast gene YIL087C,1.8
same,level of expressed mRNA in the presence of chemical substance / level in the absence of chemical substance,yeast gene YIL127C,0.6
same,level of expressed mRNA in the presence of chemical substance / level in the absence of chemical substance,yeast gene YJL017W,0.2
same,level of expressed mRNA in the presence of chemical substance / level in the absence of chemical substance,yeast gene YJL037W,1.2
same,The level of expressed mRNA in the presence of chemical substance/The level of expressed mRNA in the absence of chemical substance,yeast gene YJL057C,2.7
same,The level of expressed mRNA in the presence of chemical substance/The level of expressed mRNA in the absence of chemical substance,yeast gene YJL066C,1.6
same,The level of expressed mRNA in the presence of chemical substance/The level of expressed mRNA in the absence of chemical substance,yeast gene YJL082W,0.4
same,level of expressed mRNA in the presence of chemical substance / level in the absence of chemical substance,yeast gene YJL097W,1.0
